Results on 16 molecules are retold here after US11786519B2, “Apoptosis-inducing agents for the treatment of cancer and immune and autoimmune diseases” (AbbVie Inc., priority 2011, dated 2023).

Each structure is given as a SMILES string. pKi: −log10 of the molar value.

Sequence of Bcl-xL (Q07817 whole entry): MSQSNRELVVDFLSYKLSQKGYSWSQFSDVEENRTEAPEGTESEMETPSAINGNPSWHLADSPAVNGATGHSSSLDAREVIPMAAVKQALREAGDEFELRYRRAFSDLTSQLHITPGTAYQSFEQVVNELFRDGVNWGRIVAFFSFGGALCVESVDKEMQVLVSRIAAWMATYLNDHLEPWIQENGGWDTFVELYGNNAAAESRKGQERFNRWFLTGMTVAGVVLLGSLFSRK

This experiment addresses Bcl-xL (Homo sapiens, UniProt Q07817). The experiment is described as follows: TR-FRET binding assay, competition with F-Bak for Bcl-xL. Conditions: competition with F-Bak probe, GST-Bcl-xL. On the procedure:
Determination of the utility of compounds having Formula (I) as binders to and inhibitors of anti-apoptotic Bcl-xL proteins was performed using the Time Resolved-Fluorescence Resonance Energy Transfer (TR-FRET) Assay. Tb-anti-GST antibody was purchased from Invitrogen (Catalog No. PV4216).
The measurement of competition of compounds of the invention with F-Bak for a Bcl-2 family protein (Bcl-xL) binding site using a Time Resolved Fluorescence Resonance Energy Transfer (TR-FRET) binding assay:
Test compounds were serially diluted in DMSO starting at 50 µM (2× starting concentration; 10% DMSO) and 10 μL transferred into a 384-well plate.
The samples are then mixed on a shaker for 1 minute then incubated for an additional 2 hours at room temperature. For each assay plate, a probe/antibody and protein/antibody/probe mixture were included as a negative and a positive control, respectively. Fluorescence was measured on the ENVISION plate reader (Perkin Elmer) using a 340/35 nm excitation filter and 520/525 (F-Bak) and 495/510 nm ([…]) emission filters. Dissociation constants (Ki) were determined using Wang's equation (Wang, Z. X. An exact mathematical expression for describing competitive binding of two different ligands to a protein molecule. FEBS Lett. 1995 360:111-114). The TR-FRET assay can be performed in the presence of varying concentrations of human serum (HS) or fetal bovine serum (FBS).
In turn, `Cc1c(-c2ccc(N3CCc4cccc(C(=O)Nc5nc6ccccc6s5)c4C3)nc2C(=O)O)cccc1S(=O)(=O)NC12CC3CC(CC(C3)C1)C2` [Example 51, 6-[8-(1,3-benzothiazol-2-ylcarbamoyl)-3,4-dihydroisoquinolin-2(1H)-yl]-3-{2-methyl-3-[tricyclo[3.3.1.1^3,7]dec-1-ylsulfamoyl]phenyl}pyridine-2-carboxylic acid] showed a pKi of 9.52.
The figure for `Cc1c(-c2ccc(N3CCc4cccc(C(=O)Nc5nc6ccccc6s5)c4C3)nc2C(=O)O)cccc1N(C)CC12CC3CC(CC(C3)C1)C2` [Example 55, 6-[8-(1,3-benzothiazol-2-ylcarbamoyl)-3,4-dihydroisoquinolin-2(1H)-yl]-3-(2-methyl-3-{methyl[tricyclo[3.3.1.1^3,7]dec-1-ylmethyl]amino}phenyl)pyridine-2-carboxylic acid] is 9.40; for `COCCC1(Cn2cc(-c3ccc(N4CCc5cccc(C(=O)Nc6nc7ccccc7s6)c5C4)nc3C(=O)O)cn2)C2CC3CC(C2)CC1C3` (stereo not shown) [Example 56, 6-[8-(1,3-benzothiazol-2-ylcarbamoyl)-3,4-dihydroisoquinolin-2(1H)-yl]-3-(1-{[2-(2-methoxyethyl)tricyclo[3.3.1.1^3,7]dec-2-yl]methyl}-1H-pyrazol-4-yl)pyridine-2-carboxylic acid] it is over 10.00; for `Cc1c(-c2ccc(N3CCc4cccc(C(=O)Nc5nc6ccccc6s5)c4C3)nc2C(=O)O)nnn1CC12CC3CC(CC(C3)C1)C2` [Example 57, 6-[8-(1,3-benzothiazol-2-ylcarbamoyl)-3,4-dihydroisoquinolin-2(1H)-yl]-3-[5-methyl-1-(tricyclo[3.3.1.1^3,7]dec-1-ylmethyl)-1H-1,2,3-triazol-4-yl]pyridine-2-carboxylic acid] it is over 10.00.
As for `COC12CC3CC(CC(Cn4c(C#N)cc(-c5ccc(N6CCc7cccc(C(=O)Nc8nc9ccccc9s8)c7C6)nc5C(=O)O)c4C)(C3)C1)C2` [Example 58, 6-[8-(1,3-benzothiazol-2-ylcarbamoyl)-3,4-dihydroisoquinolin-2(1H)-yl]-3-(5-cyano-1-{[3-methoxytricyclo[3.3.1.1^3,7]dec-1-yl]methyl}-2-methyl-1H-pyrrol-3-yl)pyridine-2-carboxylic acid], the figure is over 10.00.
The figure for `N#Cc1c(-c2ccc(N3CCc4cccc(C(=O)Nc5nc6ccccc6s5)c4C3)nc2C(=O)O)cccc1S(=O)(=O)C12CC3CC(CC(C3)C1)C2` [Example 60, 6-[8-(1,3-benzothiazol-2-ylcarbamoyl)-3,4-dihydroisoquinolin-2(1H)-yl]-3-[2-cyano-3-(tricyclo[3.3.1.1^3,7]dec-1-ylsulfonyl)phenyl]pyridine-2-carboxylic acid] is over 10.00; for `Cc1c(-c2ccc(N3CCc4cccc(C(=O)Nc5nc6ccccc6s5)c4C3)nc2C(=O)O)ccnc1N(C)C1CCCCCCC1` [Example 61, 6-[8-(1,3-benzothiazol-2-ylcarbamoyl)-3,4-dihydroisoquinolin-2(1H)-yl]-2′-[cyclooctyl(methyl)amino]-3′-methyl-3,4′-bipyridine-2-carboxylic acid] it is over 10.00.
The molecule `Cc1c(-c2ccc(N3CCc4cccc(C(=O)Nc5nc6ccccc6s5)c4C3)nc2C(=O)O)cnn1CC1C2CC3CC(C2)CC1C3` (stereo not shown) [Example 62, 6-[8-(1,3-benzothiazol-2-ylcarbamoyl)-3,4-dihydroisoquinolin-2(1H)-yl]-3-[5-methyl-1-(tricyclo[3.3.1.1^3,7]dec-2-ylmethyl)-1H-pyrazol-4-yl]pyridine-2-carboxylic acid] showed a pKi of over 10.00.
Turning to `Cc1c(C(=O)N(C)C2C3CC4CC(C3)CC2C4)cccc1-c1ccc(N2CCc3cccc(C(=O)Nc4nc5ccccc5s4)c3C2)nc1C(=O)O` (stereo not shown) [Example 64], the pKi is over 10.00.
The figure for `Cc1c(-c2ccc(N3CCc4cccc(C(=O)Nc5nc6ccccc6s5)c4C3)nc2C(=O)O)cccc1N(C)C(=O)C12CC3CC(CC(C3)O1)C2` [Example 68, 6-[8-(1,3-benzothiazol-2-ylcarbamoyl)-3,4-dihydroisoquinolin-2(1H)-yl]-3-{2-methyl-3-[methyl(2-oxatricyclo[3.3.1.1^3,7]dec-1-ylcarbonyl)amino]phenyl}pyridine-2-carboxylic acid] is over 10.00; for `Cc1c(-c2ccc(N3CCc4cccc(C(=O)Nc5nc6ccccc6s5)c4C3)nc2C(=O)O)cccc1S(=O)(=O)N(C)C1C2CC3CC(C2)CC1C3` (stereo not shown) [Example 69, 6-[8-(1,3-benzothiazol-2-ylcarbamoyl)-3,4-dihydroisoquinolin-2(1H)-yl]-3-(2-methyl-3-{methyl[tricyclo[3.3.1.1^3,7]dec-2-yl]sulfamoyl}phenyl)pyridine-2-carboxylic acid] it is 9.22; for `Cc1c(-c2ccc(N3CCc4cccc(C(=O)Nc5nc6ccccc6s5)c4C3)nc2C(=O)O)ccnc1S(=O)(=O)C12CC3CC(CC(C3)C1)C2` [Example 70, 6-[8-(1,3-benzothiazol-2-ylcarbamoyl)-3,4-dihydroisoquinolin-2(1H)-yl]-3′-methyl-2′-(tricyclo[3.3.1.1^3,7]dec-1-ylsulfonyl)-3,4′-bipyridine-2-carboxylic acid] it is over 10.00.
As for `Cc1c(-c2ccc(N3CCc4cccc(C(=O)Nc5nc6ccccc6s5)c4C3)nc2C(=O)O)cc(C#N)n1CC12CC3CC(CC(C)(C3)O1)C2` [Example 72, 6-[8-(1,3-benzothiazol-2-ylcarbamoyl)-3,4-dihydroisoquinolin-2(1H)-yl]-3-{5-cyano-2-methyl-1-[(3-methyl-2-oxatricyclo[3.3.1.1^3,7]dec-1-yl)methyl]-1H-pyrrol-3-yl}pyridine-2-carboxylic acid], the figure is over 10.00; as for `Cc1c(-c2ccc(N3CCc4cccc(C(=O)Nc5cn6ccncc6n5)c4C3)nc2C(=O)O)cnn1CC12CC3CC(CC(C3)C1)C2` [Example 73, 6-[8-(imidazo[1,2-a]pyrazin-2-ylcarbamoyl)-3,4-dihydroisoquinolin-2(1H)-yl]-3-[5-methyl-1-(tricyclo[3.3.1.1^3,7]dec-1-ylmethyl)-1H-pyrazol-4-yl]pyridine-2-carboxylic acid], over 10.00; as for `Cc1c(-c2ccc(N3CCc4cccc(C(=O)Nc5nc6ccccc6s5)c4C3)nc2C(=O)O)cnn1CC12CC3CC(C1)CC(S(C)(=O)=O)(C3)C2` [Example 81, 6-[8-(1,3-benzothiazol-2-ylcarbamoyl)-3,4-dihydroisoquinolin-2(1H)-yl]-3-(5-methyl-1-{[3-(methylsulfonyl)tricyclo[3.3.1.1^3,7]dec-1-yl]methyl}-1H-pyrazol-4-yl)pyridine-2-carboxylic acid], over 10.00.
As for `CNCCOC12CC3(C)CC(C)(CC(Cn4ncc(-c5ccc(N6CCc7cccc(C(=O)Nc8nc9ccccc9s8)c7C6)nc5C(=O)O)c4C)(C3)C1)C2` [Example 82, 6-[8-(1,3-benzothiazol-2-ylcarbamoyl)-3,4-dihydroisoquinolin-2(1H)-yl]-3-[1-({3,5-dimethyl-7-[2-(methylamino)ethoxy]tricyclo[3.3.1.1^3,7]dec-1-yl}methyl)-5-methyl-1H-pyrazol-4-yl]pyridine-2-carboxylic acid], the figure is over 10.00.
